We go through 26 compounds from ChEMBL document CHEMBL1139426, “Design and synthesis of a metabolically stable and potent antitussive agent, a novel delta opioid receptor antagonist, TRK-851” (Bioorg Med Chem, 2008).

Data set [1] is described as follows: Metabolic stability in human liver microsomes assessed as time course of compound elimination at 1 uM by HPLC. The settings on record: read-out: Ke (converted). Format: ADME, Microsome. In general terms: Liver microsomes are a subcellular fraction often used to study metabolism.
Data set [2] has as its system Rattus norvegicus. As to the kind of experiment: Antitussive activity in sc dosed Sprague-Dawley rat assessed as reduction of capsaicin-induced coughing for 3 mins administered 30 mins before capsaicin challenge relative to control. Format: functional.
The test system of data set [3] is Rattus norvegicus. As to the kind of experiment: Antitussive activity in ip dosed Sprague-Dawley rat assessed as reduction of capsaicin-induced coughing for 3 mins administered 30 mins before capsaicin challenge relative to control. It counts as functional.
Data set [4] relates to Rattus norvegicus. As to the kind of experiment: Antitussive activity in po dosed rat assessed as reduction of coughing. Format: functional.
The target in data set [5] is Kappa-type opioid receptor (Mus musculus) (UniProt P33534). Briefly: Antagonist activity at kappa opioid receptor in ddy mouse vas deferens assessed as inhibition of U-50,488H-induced electrically-stimulated contraction at 10 nM pretreated for 20 mins. Format: functional, tissue-based.
Data set [6] has the same target. Briefly: Antagonist activity at kappa opioid receptor in ddy mouse vas deferens assessed as ratio of U-50,488H concentration that elicit equal response in absence and presence of compound. It counts as functional.
The target of data set [7] is Delta-type opioid receptor (Mus musculus) (UniProt P32300). Briefly: Antagonist activity at delta opioid receptor in ddy mouse vas deferens assessed as ratio of DPDPE concentration that elicit equal response in absence and presence of compound. It counts as functional.
Data set [8] deals with Mu-type opioid receptor (Mus musculus) (UniProt P42866). Briefly: Antagonist activity at mu opioid receptor in ddy mouse vas deferens assessed as ratio of morphine concentration that elicit equal response in absence and presence of compound. Format: functional.
For data set [9], the target named is Delta-type opioid receptor (Mus musculus, UniProt P32300). As to the kind of experiment: Antagonist activity at delta opioid receptor in ddy mouse vas deferens assessed as inhibition of DPDPE-induced electrically-stimulated contraction. Format: functional, tissue-based.
Data set [10] relates to Rattus norvegicus. As to the kind of experiment: Antitussive activity in po dosed Sprague-Dawley rat assessed as inhibition of capsaicin-induced coughing for 3 mins administered 60 mins before capsaicin challenge relative to control. It counts as functional, organism-based.
For data set [11], the species on record is Mus musculus. As to the kind of experiment: Selectivity for delta opioid receptor over kappa opioid receptor in ddy mouse vas deferens. It counts as tissue-based.
For data set [12], the species on record is Mus musculus. Briefly: Selectivity for delta opioid receptor over mu opioid receptor in ddy mouse vas deferens. Format: tissue-based.
Data set [13] deals with Delta-type opioid receptor (Mus musculus) (UniProt P32300). As to the kind of experiment: Antagonist activity at delta opioid receptor in ddy mouse vas deferens assessed as inhibition of DPDPE-induced electrically-stimulated contraction at 10 nM pretreated for 20 mins. Format: functional, tissue-based.
Data set [14] concerns the target Mu-type opioid receptor (Mus musculus) (UniProt P42866). As to the kind of experiment: Antagonist activity at mu opioid receptor in ddy mouse vas deferens assessed as inhibition of morphine-induced electrically-stimulated contraction at 10 nM pretreated for 20 mins. It counts as functional, tissue-based.
Data set [15] has as its target Kappa-type opioid receptor (Mus musculus, UniProt P33534). As to the kind of experiment: Antagonist activity at kappa opioid receptor in ddy mouse vas deferens assessed as inhibition of U-50,488H-induced electrically-stimulated contraction. Format: functional, tissue-based. The note with it: read-out: pA2 (converted).

Activity calls are given as the source filed them. The calls are words filed in the database; no cut-off is given here. Some results are limits rather than exact numbers.

Delta-type opioid receptor (Mus musculus), sequence (P32300 whole entry): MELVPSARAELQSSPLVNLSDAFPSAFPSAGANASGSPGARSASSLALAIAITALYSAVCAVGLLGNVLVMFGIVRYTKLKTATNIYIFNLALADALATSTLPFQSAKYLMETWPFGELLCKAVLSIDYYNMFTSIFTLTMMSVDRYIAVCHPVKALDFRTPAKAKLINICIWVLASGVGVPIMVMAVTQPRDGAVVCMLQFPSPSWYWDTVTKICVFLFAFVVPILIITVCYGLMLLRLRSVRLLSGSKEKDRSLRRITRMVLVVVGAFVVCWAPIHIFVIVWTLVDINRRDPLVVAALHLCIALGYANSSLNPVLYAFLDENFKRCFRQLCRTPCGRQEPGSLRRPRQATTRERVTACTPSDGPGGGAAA
Delta-type opioid receptor, sequence (P32300 whole entry): as above
Mu-type opioid receptor (Mus musculus), sequence (P42866 whole entry): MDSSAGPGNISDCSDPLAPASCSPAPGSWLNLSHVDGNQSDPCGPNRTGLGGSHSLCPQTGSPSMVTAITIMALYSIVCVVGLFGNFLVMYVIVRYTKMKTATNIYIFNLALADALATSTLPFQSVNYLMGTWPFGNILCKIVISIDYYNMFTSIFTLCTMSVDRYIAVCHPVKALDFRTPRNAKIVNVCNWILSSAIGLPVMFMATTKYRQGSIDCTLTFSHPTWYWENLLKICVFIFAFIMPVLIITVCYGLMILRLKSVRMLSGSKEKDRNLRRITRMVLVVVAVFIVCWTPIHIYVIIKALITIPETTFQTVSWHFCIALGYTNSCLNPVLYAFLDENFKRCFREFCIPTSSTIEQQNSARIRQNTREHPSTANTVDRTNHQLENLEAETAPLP
Kappa-type opioid receptor (Mus musculus), sequence (P33534 whole entry): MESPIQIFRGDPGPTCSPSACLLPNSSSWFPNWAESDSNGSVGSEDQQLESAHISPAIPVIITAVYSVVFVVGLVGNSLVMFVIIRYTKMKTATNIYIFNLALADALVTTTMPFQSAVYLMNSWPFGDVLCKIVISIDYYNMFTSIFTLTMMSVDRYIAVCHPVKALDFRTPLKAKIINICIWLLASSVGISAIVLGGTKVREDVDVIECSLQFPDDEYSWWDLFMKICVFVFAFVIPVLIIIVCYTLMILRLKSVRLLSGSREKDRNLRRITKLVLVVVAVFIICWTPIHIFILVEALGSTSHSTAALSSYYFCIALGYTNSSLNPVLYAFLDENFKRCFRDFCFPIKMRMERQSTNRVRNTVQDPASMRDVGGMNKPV
Kappa-type opioid receptor, sequence (P33534 whole entry): as above

As for `COc1ccc2c3c1O[C@H]1c4c(c5c(C(F)(F)F)ccc6c5n4CCC6)C[C@@]4(O)[C@@H](C2)N(CC2CC2)CC[C@]314`, the k el at 1 µM in data set [1] is 0.00228 s⁻¹.
For orientation: ED50 means the dose that gives a 50% effect, or the effect in half of the subjects. Consider `Oc1ccc2c3c1O[C@H]1c4c(c5cccc6c5n4CCC6)C[C@@]4(O)[C@@H](C2)N(CC2CC2)CC[C@]314`, for which the k el at 1 µM in data set [1] was 0.000415 s⁻¹. For the same compound, in data set [2], the ED50 was 0.2 µg/kg.
For the compound `Oc1ccc2c3c1O[C@H]1c4[nH]c5ccccc5c4C[C@@]4(O)[C@@H](C2)N(CC2CC2)CC[C@]314` [NALTRINDOLE], the ED50 in [3] came to 104 µg/kg.
Take `Oc1ccc2c3c1O[C@H]1c4c(c5cc(OC(F)(F)F)cc6c5n4CCC6)C[C@@]4(O)[C@@H](C2)N(CC2CC2)CC[C@]314`: in data set [1], the k el at 1 µM is 0.000152 s⁻¹. Further, the ED50 in [2] was > 1000 µg/kg.
For `COc1ccc2c3c1O[C@H]1c4c(c5cccc6c5n4CCC6(C)C)C[C@@]4(O)[C@@H](C2)N(CC2CC2)CC[C@]314`, the k el at 1 µM in data set [1] was 0.00103 s⁻¹. The ED50 in data set [2] came to 12.8 µg/kg.
The matching figures for `Oc1ccc2c3c1O[C@H]1c4c(c5c(Br)ccc6c5n4CCC6)C[C@@]4(O)[C@@H](C2)N(CC2CC2)CC[C@]314`: 0.000618 s⁻¹ and 94.6 µg/kg.
`COc1ccc2c3c(n4c2c1CCC4)[C@@H]1Oc2c(O)ccc4c2[C@@]12CCN(CC1CC1)[C@H](C4)[C@]2(O)C3`: the k el at 1 µM in data set [1] was 0.000437 s⁻¹. Besides, the ED50 in [2] came to 54.2 µg/kg.
For the compound `COc1ccc2c3c1O[C@H]1c4c(c5cccc6c5n4CCC6)C[C@@]4(O)[C@@H](C2)N(CC2CC2)CC[C@]314.CS(=O)(=O)O`, the k el at 1 µM in data set [1] was 0.00568 s⁻¹. In addition, the ED50 in data set [4] is 6.4 µg/kg; in data set [3], 2.07 µg/kg.
In the case of `Oc1ccc2c3c1O[C@H]1c4c(c5cc(Br)cc6c5n4CCC6)C[C@@]4(O)[C@@H](C2)N(CC2CC2)CC[C@]314`, the k el at 1 µM in [1] is 0.000252 s⁻¹. The ED50 in data set [2] turned out to be 5.05 µg/kg.
In the case of `COc1ccc2c3c1c1c(n3CCC2)[C@@H]2Oc3c(O)ccc4c3[C@@]23CCN(CC2CC2)[C@H](C4)[C@]3(O)C1`, in data set [1], the k el at 1 µM is 0.000475 s⁻¹. The ED50 in data set [2] stood at 8.67 µg/kg.
As to `COc1ccc2c3c1O[C@H]1c4c(c5cc(F)cc6c5n4CCC6)C[C@@]4(O)C(C2)N(CC2CC2)CC[C@]314`, in [1], the k el at 1 µM was 0.00647 s⁻¹. In addition, the ED50 in data set [3] amounted to 4.73 µg/kg.
Take `COc1cc2c3c(c1)c1c(n3CCC2)[C@@H]2Oc3c(O)ccc4c3[C@@]23CCN(CC2CC2)[C@H](C4)[C@]3(O)C1`: in [1], the k el at 1 µM is 0.000552 s⁻¹. Besides, the ED50 in [2] came out at 2 µg/kg.
As to `Cc1ccc2c3c1c1c(n3CCC2)[C@@H]2Oc3c(O)ccc4c3[C@@]23CCN(CC2CC2)[C@H](C4)[C@]3(O)C1`, the k el at 1 µM in data set [1] was 0.000565 s⁻¹.
For `Oc1ccc2c3c1O[C@H]1c4c(c5cccc6c5n4CCO6)C[C@@]4(O)[C@@H](C2)N(CC2CC2)CC[C@]314`, the k el at 1 µM in [1] was 0.000557 s⁻¹. For the same compound, the ED50 in data set [2] was found to be 14 µg/kg.
For `COc1ccc2c3c1O[C@H]1c4c(c5cc(Br)cc6c5n4CCC6)C[C@@]4(O)[C@@H](C2)N(CC2CC2)CC[C@]314`, the k el at 1 µM in data set [1] is 0.0044 s⁻¹.
In the case of `CC1(C)CCn2c3c(c4cccc1c42)C[C@@]1(O)[C@H]2Cc4ccc(O)c5c4[C@@]1(CCN2CC1CC1)[C@H]3O5`, in data set [1], the k el at 1 µM was 0.00126 s⁻¹.
Turning to `Oc1ccc2c3c1O[C@H]1c4c(c5c(Cl)ccc6c5n4CCC6)C[C@@]4(O)[C@@H](C2)N(CC2CC2)CC[C@]314`, the k el at 1 µM in data set [1] was 0.00045 s⁻¹. In addition, the ED50 in data set [2] worked out at 3.5 µg/kg.
As to `Oc1ccc2c3c1O[C@H]1c4c(c5cc(C(F)(F)F)cc6c5n4CCC6)C[C@@]4(O)[C@@H](C2)N(CC2CC2)CC[C@]314`, the k el at 1 µM in data set [1] was 0.00027 s⁻¹. The ED50 in data set [2] was > 1000 µg/kg.
With `Oc1ccc2c3c1O[C@H]1c4c(c5ccc(Br)c6c5n4CCC6)C[C@@]4(O)[C@@H](C2)N(CC2CC2)CC[C@]314`, in [1], the k el at 1 µM is 0.000363 s⁻¹. The ED50 in [2] came out at 27.4 µg/kg.
Take `COc1ccc2c3c1O[C@H]1c4c(c5c(C)ccc6c5n4CCC6)C[C@@]4(O)[C@@H](C2)N(CC2CC2)CC[C@]314`: the k el at 1 µM in [1] is 0.00595 s⁻¹.
With `Oc1ccc2c3c1O[C@H]1c4c(c5c(C(F)(F)F)ccc6c5n4CCC6)C[C@@]4(O)[C@@H](C2)N(CC2CC2)CC[C@]314`, the k el at 1 µM in [1] is 0.000278 s⁻¹. For the same compound, the ED50 in data set [2] came out at 0.355 µg/kg.
As for `Oc1ccc2c3c1O[C@H]1c4c(c5cc(Cl)cc6c5n4CCC6)C[C@@]4(O)[C@@H](C2)N(CC2CC2)CC[C@]314`, in data set [1], the k el at 1 µM is 0.000295 s⁻¹. The median effective dose (ED50) in [3] worked out at 78.4 µg/kg.
With `COc1ccc2c3c1O[C@H]1c4c(c5c(OC)ccc6c5n4CCC6)C[C@@]4(O)[C@@H](C2)N(CC2CC2)CC[C@]314`, in data set [1], the k el at 1 µM is 0.00333 s⁻¹.
With `COc1ccc2c3c1O[C@H]1c4c(c5cccc6c5n4CCO6)C[C@@]4(O)[C@@H](C2)N(CC2CC2)CC[C@]314`, the k el at 1 µM in [1] is 0.00105 s⁻¹.
As usually defined, the IC50 is the concentration that gives 50% inhibition. With `Oc1ccc2c3c1O[C@H]1c4c(c5cc(F)cc6c5n4CCC6)C[C@@]4(O)[C@@H](C2)N(CC2CC2)CC[C@]314`, the result in data set [5], in data set [13] and in data set [14] was inactive. Also, in data set [1], the k el at 1 µM was 0.00029 s⁻¹. Moreover, the Ratio in data set [6] came to 1.03; in [7] it was 7.87; in data set [8], 0.98. Further, the IC50 in data set [9] was determined as 8800 nM. Also, the Kb in [9] (read-out: pA2 (converted)) was 1.45 nM; in data set [15] it was 331 nM. Further, in data set [2], the ED50 worked out at 1.7 µg/kg. Further, the Activity result in data set [10] was “Dose-dependent effect”. The Selectivity ratio in data set [11] and in [12] was > 100 throughout.
`Oc1ccc2c3c1O[C@H]1c4c(c5ccc(Cl)c6c5n4CCC6)C[C@@]4(O)[C@@H](C2)N(CC2CC2)CC[C@]314`: the k el at 1 µM in [1] was 0.000483 s⁻¹. For the same compound, the ED50 in data set [2] stood at 13.8 µg/kg.
